Laboratory results: article PMC9994683 (PLOS ONE, 2023)

Tests used:
[1] = test system: Listeria monocytogenes (ATCC 35152); experiment: Well-diffusion assay; format: cell-based; settings: extracts 50 μg/mL, 50 μL per well, within 24 h
[2] = test system: Escherichia coli (ATCC 25922); experiment: Disc-diffusion assay; format: cell-based
[3] = test system: Pseudomonas aeruginosa (ATCC 10145); experiment: Well-diffusion assay; format: cell-based; settings: extracts 50 μg/mL, 50 μL per well, within 24 h
[4] = test system: Pseudomonas aeruginosa (ATCC 10145); experiment: Disc-diffusion assay; format: cell-based
[5] = test system: Salmonella enterica (ATCC 14028); experiment: Disc-diffusion assay; format: cell-based; settings: ATCC14028, extracts 50 μg/mL, vancomycin 30 μg/disc, ciprofloxacin 5 μg/disc, read-out: zone of inhibition (diameter), Disc, S. enterica
Procedure: (§1) The bactericidalpotential of 50μg/mL of A. indica L. and M. azedarach L. leaves extracts were evaluated using the disc and well-diffusion assays by the formation of inhibition zone. Then, the broth-microdilution approach was used to estimate the values of minimum inhibitory concentration (MIC).
(§2) The antibacterial actions of extracts were examined against Escherichia coli (ATCC 25922), Salmonella enterica (ATCC 14028), Pseudomonas aeruginosa (ATCC 10145), representing Gram-negative (GN) bacteria; Listeria monocytogenes (ATCC 35152), Staphylococcus aureus (ATCC 43300) and Enterococcus faecalis (ATCC 43845), representing Gram-positive (GP) bacteria. Each bacterial culture stock preserved in -80°C was injected into a tube containing 20 ml of Trypticase soya broth (TSB). Then, all inoculated tubes were incubated for 24 h at 37°C. Dilution of the cultures with Mueller–Hinton Broth (MHB) was performed corresponding to ten folds serial dilution upto 10^-8CFU/ml of the bacterial culture.
(§3) 2.6.2.1. Disc-diffusion method. The technique was conducted based upon the Clinical and Laboratory Standards Institute (CLSI) (M02-A11). The prepared bacterial inoculum suspension was briefly swabbed onto MHA medium with a sterile cotton swab. Next, sterile discs made of filter paper (6 mm) (Maidstone, UK) were saturated with 50μg/mLof the tested samples. Both Ciprofloxacin (5μg/disc) and Vancomycin (30μg/disc) were used as controls. The saturated discs were lightly pushed on the top surfaces MHA and incubated with bacteria overnight at 37°C. A produced zone of inhibition (ZOI) was measured and given in millimeters (mm).

[6] = test system: Listeria monocytogenes (ATCC 35152); experiment: Disc-diffusion assay; format: cell-based; settings: ATCC35152, extracts 50 μg/mL, vancomycin 30 μg/disc, ciprofloxacin 5 μg/disc, read-out: zone of inhibition (diameter), Disc, L. mono.
Procedure: as §1, §2, §3

[7] = test system: Enterococcus faecalis (ATCC 43845); experiment: Well-diffusion assay; format: cell-based; settings: extracts 50 μg/mL, 50 μL per well, within 24 h
[8] = test system: Staphylococcus aureus (ATCC 43300); experiment: Disc-diffusion assay; format: cell-based
[9] = test system: Escherichia coli (ATCC 25922); experiment: Well-diffusion assay; format: cell-based; settings: extracts 50 μg/mL, 50 μL per well, within 24 h
[10] = test system: Staphylococcus aureus (ATCC 43300); experiment: Well-diffusion assay; format: cell-based; settings: extracts 50 μg/mL, 50 μL per well, within 24 h
[11] = test system: Enterococcus faecalis (ATCC 43845); experiment: Disc-diffusion assay; format: cell-based
[12] = test system: Salmonella enterica (ATCC 14028); experiment: Well-diffusion assay; format: cell-based; settings: extracts 50 μg/mL, 50 μL per well, within 24 h
Procedure: as §1, §2
2.6.2.2. Well-diffusion method. Using sanitized needle tips, a 6 mm-diameter hole was drilled. Afterward when, a sterilized cotton swab was employed to smear the inoculum standard solution of the examined microbes onto the medium. The specimen was then transferred to each well in intervals of 50 μL. Two reference antibiotic drugs (vancomycin and ciprofloxacin) served as positive controls. […]

[13] = test system: hCoV-19/Egypt/NRC-3/2020 SARS-CoV-2 virus; experiment: Anti-SARS-CoV-2 activity (IC50), crystal violet assay in Vero-E6 cells; format: cell-based; settings: SARS-CoV-2 in Vero E6 cells, reference drug control
[14] = test system: Vero E6 cells; experiment: MTT cytotoxicity assay (CC50) in Vero E6 cells; format: cell-based, African green monkey; settings: reference drug control

Compound | zone of inhibition (diameter), Well, L. mono. [1] [mm] | zone of inhibition at 5 µg/disc ([2]; ATCC25922, extracts 50 μg/mL, vancomycin 30 μg/disc, ciprofloxacin 5 μg/disc, read-out: zone of inhibition (diameter), Disc, E. coli) [mm] | zone of inhibition (diameter), Well, P. aeruginosa [3] [mm] | zone of inhibition at 5 µg/disc ([4]; ATCC10145, extracts 50 μg/mL, vancomycin 30 μg/disc, ciprofloxacin 5 μg/disc, read-out: zone of inhibition (diameter), Disc, P. aeruginosa) [mm] | zone of inhibition at 5 µg/disc [5] [mm] | zone of inhibition at 5 µg/disc [6] [mm] | zone of inhibition (diameter), Well, E. faecalis [7] [mm] | zone of inhibition at 5 µg/disc ([8]; ATCC43300, extracts 50 μg/mL, vancomycin 30 μg/disc, ciprofloxacin 5 μg/disc, read-out: zone of inhibition (diameter), Disc, S. aureus) [mm] | zone of inhibition (diameter), Well, E. coli [9] [mm] | zone of inhibition (diameter), Well, S. aureus [10] [mm] | zone of inhibition at 5 µg/disc ([11]; ATCC43845, extracts 50 μg/mL, vancomycin 30 μg/disc, ciprofloxacin 5 μg/disc, read-out: zone of inhibition (diameter), Disc, E. faecalis) [mm] | zone of inhibition (diameter), Well, S. enterica [12] [mm] | zone of inhibition at 30 µg/disc ([2]; ATCC25922, read-out: zone of inhibition (diameter), Disc, E. coli) [mm] | zone of inhibition at 30 µg/disc ([4]; ATCC10145, read-out: zone of inhibition (diameter), Disc, P. aeruginosa) [mm] | zone of inhibition at 30 µg/disc [5] [mm] | zone of inhibition at 30 µg/disc [6] [mm] | zone of inhibition at 30 µg/disc ([8]; ATCC43300, read-out: zone of inhibition (diameter), Disc, S. aureus) [mm] | zone of inhibition at 30 µg/disc ([11]; ATCC43845, read-out: zone of inhibition (diameter), Disc, E. faecalis) [mm] | IC50 [13] [µM] | CC50 [14] [µM]
O=C(O)c1cn(C2CC2)c2cc(N3CCNCC3)c(F)cc2c1=O [Cipro., ciprofloxacin] | 8 ±0.18 | 14 ± 0.28 | 11 ±0.31 | 9 ± 0.15 | 11 ± 0.15 | 6 ± 0.25 | 10 ±0.15 | 8 ± 0.24 | 16 ±0.19 | 10 ±0.29 | 9 ± 0.19 | 12 ±0.31 | – | – | – | – | – | – | – | –
CN[C@H](CC(C)C)C(=O)N[C@H]1C(=O)N[C@@H](CC(N)=O)C(=O)N[C@H]2C(=O)N[C@H]3C(=O)N[C@H](C(=O)N[C@H](C(=O)O)c4cc(O)cc(O)c4-c4cc3ccc4O)[C@H](O)c3ccc(c(Cl)c3)Oc3cc2cc(c3O[C@@H]2O[C@H](CO)[C@@H](O)[C@H](O)[C@H]2O[C@H]2C[C@](C)(N)[C@H](O)[C@H](C)O2)Oc2ccc(cc2Cl)[C@H]1O [Vanco., vancomycin] | 11 ±0.11 | – | 8 ±0.24 | – | – | – | 13 ±0.23 | – | 10 ±0.23 | 14 ±0.27 | – | 9 ±0.24 | 9 ± 0.11 | 6 ± 0.21 | 7 ± 0.21 | 9 ± 0.43 | 12 ± 0.22 | 11 ± 0.31 | – | –
CCC(CC)COC(=O)[C@H](C)N[P@](=O)(OC[C@H]1O[C@@](C#N)(c2ccc3c(N)ncnn23)[C@H](O)[C@@H]1O)Oc1ccccc1 [remedesivir] | – | – | – | – | – | – | – | – | – | – | – | – | – | – | – | – | – | – | 6.72 | 473
